The target of experiment [1] is T1, cannabinoid central type (CB1) receptor (Rattus norvegicus, UniProt P20272).
T1 construct: rat cerebellar membrane fraction and spleen cells were respectively used; from tissue; host or cells: rat cerebellar membrane fraction (male SD rats, 7-9 weeks old)
In words: Binding assay, cannabinoid central type receptor (CB1), rat cerebellar membrane fraction, [3H]Win55212-2. The procedure: (§1) [I] Binding Assay (in vitro)
(§2) As the sample rich in cannabinoid central type (CB1) and peripheral type (CB2) receptors, rat cerebellar membrane fraction and spleen cells were respectively used (male SD rats, 7-9 weeks old). A sample (cerebellar membrane fraction: 50 μg/ml or spleen cells: 1×10^7 cells/ml), labeled ligand ([^3 H]Win55212-2, 2 nM) and unlabeled Win55212-2 or a test compound were plated in round bottom 24 well plates, and incubated at 30° C. for 90 min in the case of cerebellar membrane fraction, and at 4° C. for 360 min in the case of spleen cells. As the assay buffer, 50 mM Tris solution containing 0.2% BSA was used for cerebellar membrane fraction, and 50 mM Tris-HBSS containing 0.2% BSA was used for spleen cells. After incubation, the samples were filtrated through a filter (Packard, Unifilter 24 GF/B) and dried. A scintillation solution (Packard, Microsint-20) was added, and the radioactivity of the samples was determined (Packard, Top count A9912V). The non-specific binding was determined by adding an excess Win55212-2 (1 μM), and specific binding was calculated by subtracting non-specific binding from the total binding obtained by adding the labeled ligand alone. The test compounds were dissolved in DMSO to the final concentration of DMSO of 0.1%. IC50 was determined from the proportion of the specifically-bound test compounds, and the Ki value of the test compounds was calculated from IC50 and Kd value of [^3 H]Win55212-2.

In experiment [2] the target is T2, cannabinoid peripheral type (CB2) receptor (Rattus norvegicus, UniProt Q9QZN9).
T2 construct: rat cerebellar membrane fraction and spleen cells were respectively used; from tissue; host or cells: rat spleen cells (male SD rats, 7-9 weeks old)
T2 sequence (Q9QZN9 1-360): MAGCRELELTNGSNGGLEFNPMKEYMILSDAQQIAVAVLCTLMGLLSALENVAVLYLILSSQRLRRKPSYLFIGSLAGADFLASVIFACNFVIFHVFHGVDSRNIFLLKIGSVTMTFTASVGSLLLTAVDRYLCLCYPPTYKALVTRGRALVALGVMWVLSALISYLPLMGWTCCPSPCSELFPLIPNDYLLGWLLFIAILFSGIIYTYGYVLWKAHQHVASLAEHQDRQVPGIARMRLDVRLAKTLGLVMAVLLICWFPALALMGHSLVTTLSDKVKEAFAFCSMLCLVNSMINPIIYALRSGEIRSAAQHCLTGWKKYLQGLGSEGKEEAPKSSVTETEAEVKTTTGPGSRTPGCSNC
In words: Binding assay, cannabinoid peripheral type receptor (CB2), rat spleen cells, [3H]Win55212-2. Particulars: for C/S: ratio of Ki central receptor (C) to Ki peripheral receptor (S). The procedure:
as §1, §2

For experiment [3], the system named is Carageenan-induced paw edema. In words: Carageenan-induced paw edema model. In kind it is in vivo, female ddy mice. Particulars: Mus musculus; po, mice, 1 h before carageenan; paw volume 3 h later. As to the method: [II] Carageenan-induced paw edema model (in vivo)
Female ddy mice (6-8 weeks old) were used. […] One hour after the administration, 50 μL of 1% carageenan dissolved in physiological saline was intradermally injected into the right foot pad. Three hours later, the volume of the right paw was measured and compared with that measured before the carageenan injection.
(§3) In both [II] and [III], the test compounds were dissolved in DMSO and used upon dilution with olive oil (final concentration of DMSO 1%).

Experiment [4] concerns Sheep red blood cell-induced delayed type hypersensitivity. In words: Sheep red blood cell (SRBC)-induced delayed type hypersensitivity (DTH) model. Particulars: Mus musculus, Erythrocyte; po, mice, 1 h before SRBC challenge; paw volume 24 h after induction. In kind it is in vivo, female ddy mice. As to the method: [III] Sheep red blood cell (SRBC)-induced delayed type hypersensitivity (DTH) model (in vivo)
Female ddy mice (6-8 weeks old) were used. On day 1, SRBC 10^7 cells were intradermally injected into the left foot pad of the mice (40 μl/foot) to immunize the mice. Five days later, the test compounds dissolved in olive oil were orally administered at 10 ml/kg. One hour later, SRBC 10^8 cells were intradermally injected into the right foot pad to induce the response. Twenty-four hours after the induction, the volume of the both paws was measured, and edema ratio was calculated by […].
as §3

The subject of experiment [5] is anti-thy-1 antibody-induced nephritis. In words: Anti-thy-1 antibody-induced nephritis model. It counts as in vivo, male Wistar rats. To be noted: for Nuclear cell count in nephritic glomerulus / Urinary protein: oral, once a day until day 6, rats. As to the method:
[IV] Anti-thy-1 antlbody-induced nephritis model (in vivo)
The test compound (prednisolone, compound of Example 7-35) was orally administered to male Wistar rats (6 weeks old), and one hour later, an anti-thy-1 antibody (ox-7, 0.938 mg/ml) was administered at 0.1 ml/rat from the tail vein. The test compound was administered once a day thereafter until day 6. At day 6, the rats were forcibly loaded with 8 ml of tap water and then deprived of water for consecutive 16 hours, during which period urine samples were taken from the rats. At day 7, the rats were killed by exsanguination. The kidney was removed, weighed and fixed with formalin, and tissue samples (PAS stained) were prepared therefrom. Evaluation was done by measuring urinary protein and nuclear cell count in nephritic glomerulus section. The test compound was prepared into a suspension with 0.5% HPMC and administered at 10 ml/kg per dose.
Sham no administration of anti-thy-1 antibody,
loaded with water and orally administered
Control administration of anti-thy-1 antibody,
Prednisolone administration of anti-thy-1 antibody,
Compound of Ex. 7-35 with said test compound

Results on seven molecules are retold here after patent US6017919A, “Compounds and pharmaceutical use thereof” (Japan Tobacco Inc., priority 1996, dated 2000).

Where a name gives a salt, the structure may show the parent alone. Read-outs that look alike come from different tables or passages of the source. A value given as a limit tells only on which side of the number the result lay.

The term Ki denotes the dissociation constant of the complex between target and ligand, obtained from inhibition or displacement. Usually ED50 stands for the dose that gives a 50% effect, or the effect in half of the subjects.

T1 sequence (P20272 whole entry): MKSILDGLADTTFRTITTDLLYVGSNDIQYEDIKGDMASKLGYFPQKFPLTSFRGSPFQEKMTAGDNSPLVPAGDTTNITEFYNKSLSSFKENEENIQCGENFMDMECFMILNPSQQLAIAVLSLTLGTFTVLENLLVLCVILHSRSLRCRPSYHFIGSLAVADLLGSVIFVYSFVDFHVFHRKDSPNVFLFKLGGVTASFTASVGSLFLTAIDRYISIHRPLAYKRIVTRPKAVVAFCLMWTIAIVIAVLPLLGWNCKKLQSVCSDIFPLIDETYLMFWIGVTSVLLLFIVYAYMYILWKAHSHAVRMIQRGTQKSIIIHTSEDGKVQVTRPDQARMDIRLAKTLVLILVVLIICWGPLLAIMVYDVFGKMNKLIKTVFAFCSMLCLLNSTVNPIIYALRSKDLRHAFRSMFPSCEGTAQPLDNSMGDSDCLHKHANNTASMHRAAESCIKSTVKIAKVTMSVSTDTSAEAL

As to `CCCCCNc1c(OC)ccc2c1CN(CCc1ccc(O)cc1)C2=O` [Example 7-31, 2-[2-(4-hydroxyphenyl)ethyl]-5-methoxy-4-pentylamino-2,3-dihydroindol-1-one], the affinity in experiment [1], expressed as Ki, was 11 nM. In addition, the C/S in experiment [2] amounted to 125. The figures for the ED50 in experiment [3] and in experiment [4] were 0.012 mg/kg and 0.08 mg/kg, respectively.
On to `CCCCCOc1ccc2c(c1OCCCCC)CN(CCc1ccc(N)cc1)C2=O` [Example 7-34, 2-[2-(4-aminophenyl)ethyl]-4,5-bispentyloxy-2,3-dihydroisoindol-1-one], for which the Ki in experiment [1] amounted to 330 nM. Moreover, the C/S in experiment [2] is 3000. For the same molecule, the ED50 in experiment [3] came out at 0.29 mg/kg; in experiment [4] it was 0.012 mg/kg.
For `CCCCCOc1ccc2c(c1OCCCCC)CN(CCc1ccc(N)cc1)C2=O.Cl` [Example 7-35, 2-[2-(4-aminophenyl)ethyl]-4,5-bispentyloxy-2,3-dihydroisoindol-1-one hydrochloride], in experiment [5] (0.1 mg/kg), the “Nuclear cell count in nephritic glomerulus” value is 84.8 ± 1.2 nuclei/glomerulus and the Urinary protein is 15.2 ± 2.4 mg/16 hr. Further, in experiment [5] (0.1 mg/kg, result in words), the “suppressive effect on increase in nuclear cell count in nephritic glomerulus” value is given as “significant suppressive effect” and the “suppressive effect on increase in urinary protein” value was “significant suppressive effect”.
As for `CCCCCOc1c(OC)ccc2c1CN(CCc1ccc(N)cc1)C2=O` [Example 7-37, 2-[2-(4-aminophenyl)ethyl]-5-methoxy-4-pentyloxy-2,3-dihydroisoindol-1-one], the Ki in experiment [1] (rat cerebellar membrane fraction, [3H]Win55212-2 2 nM, 30° C. 90 min, read-out: Ki value, Central receptor (C)) amounted to 1300 nM. In addition, in experiment [2], the C/S was found to be 93. Also, the ED50 in experiment [3] came out at 0.49 mg/kg; in experiment [4], 0.058 mg/kg.
As for `CCCCCOc1c(OC)ccc2c1CCN(CCc1ccc(N)cc1)C2=O` [Example 7-38, hydrochloride], the inhibition constant Ki in experiment [1] stood at 220 nM; in experiment [2] it was 9.9 nM. Moreover, the C/S in experiment [2] was found to be 22. Also, the figures for the ED50 in experiment [3] and in experiment [4] were 0.11 mg/kg and 0.011 mg/kg, respectively.
With `CCCCCOc1cc(OC)ccc1/C=C/C(=O)N1CCOCC1` [Example 8-2, (E)-[3-(4-methoxy-2-pentyloxyphenyl)-1-oxo-2-propenyl]-4-morpholine], the Ki in experiment [1] came to 560 nM; in experiment [2] (rat spleen cells, [3H]Win55212-2 2 nM, 4° C. 360 min, read-out: Ki value, Peripheral receptor (S)), 8.4 nM. For the same molecule, in experiment [2], the C/S is reported as 67. Further, the ED50 in experiment [3] is 0.5 mg/kg; in experiment [4], over 10 mg/kg.
Consider `C[C@]12C=CC(=O)C=C1CC[C@@H]1[C@@H]2[C@@H](O)C[C@@]2(C)[C@H]1CC[C@]2(O)C(=O)CO` [Prednisolone, prednisolone, reference compound], for which, in experiment [5] (3 mg/kg), the “Nuclear cell count in nephritic glomerulus” value was 76.9 ± 0.9 nuclei/glomerulus and the Urinary protein turned out to be 20.9 ± 2.7 mg/16 hr.
